From patent US20080014187A1, “Compositions and Methods for Treating Hypertension and Inflammation” (priority 2006, published 2008)

How the values were obtained:
[1] = system: serum IL-6 and TNF-alpha; settings: reported in the literature; cited from earlier work
[2] = case study, patient with hypertension, blood pressure and side effects; assay type: in vivo, human; settings: 30 mg CoQ10 at 9 AM, patient on 40 mg telmisartan in the evening; reading by 12 PM, from 140/90 at 8 AM
Protocol: Because of these drug side effects, the patient subsequently dropped the amlodipine and took only a 40 mg daily dose of telmisartan in the evening before retiring. […] On one day with a reading of 140/90 at 8 AM, the patient took 30 mg of CoQ10 at 9 AM and their blood pressure sharply dropped to 103/71 by 12 PM. The patient subsequently began taking 30 mg CoQ10 in the morning and evening along with the evening only dose of 40 mg telmisartan.

[3] = eight human clinical trials; cited from earlier work

| SMILES | serum IL-6 [1] | serum TNF-alpha [1] | blood pressure [2] | decrease of mean diastolic blood pressure [3] [mm Hg] | decrease of mean systolic blood pressure [3] [mm Hg] |
| --- | --- | --- | --- | --- | --- |
| COC1=C(OC)C(=O)C(C/C=C(\C)CC/C=C(\C)CC/C=C(\C)CC/C=C(\C)CC/C=C(\C)CC/C=C(\C)CC/C=C(\C)CC/C=C(\C)CC/C=C(\C)CCC=C(C)C)=C(C)C1=O [CoQ10, Coenzyme Q10] | reduces | reduces | 103/71 | 10 | 16 |
| CCOC(=O)[C@H](CCc1ccccc1)N[C@@H](C)C(=O)N1Cc2ccccc2C[C@H]1C(=O)O [quinapril] | lower | lower | – | – | – |
